Where two headings read alike, the source gives them in different places.
Molecular target: T1, BRAF V600E (Homo sapiens, UniProt P15056+Q96SW2, V600E)
T1 construct: knock-in of the HiBiT tag to the endogenous BRAF V600E locus; host or cells: A375.10 (A375 clonal line, CRISPR HiBiT knock-in at the endogenous BRAF V600E locus)
Assay: BRAF V600E HiBiT Degradation Assay
Assay type: cell-based
Summary of the method: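 Endogenous HiBiT knock-in on BRAF V600E in A375 cells (clone A375.10); 11-point half-log series, top 10 μM, 2, 6 or 24 h at 37° C. Lytic HiBiT luminescence, background-subtracted, normalized to DMSO; 4-parameter fit gives DC50, Emax (residual protein) and IP (inflection point).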

[1] = A375.10 cells, BRAF V600E, 2 hours, residual protein remaining, read-out: HiBiT-Degradation A375.10 BRAF 2 hours Emax
[2] = A375.10 cells, BRAF V600E, 6 hours, residual protein remaining, read-out: HiBiT-Degradation A375.10 BRAF 6 hours Emax
[3] = A375.10 cells, HiBiT, BRAF V600E, 24 hours, read-out: HiBiT-Degradation A375.10 BRAF 24 hours Emax
[4] = read-out: HiBiT-Degradation A375.10 BRAF 2 hours DC50, A375.10 cells, BRAF V600E, 2 hours
[5] = read-out: HiBiT-Degradation A375.10 BRAF 2 hours IP, A375.10 cells, BRAF V600E, 2 hours, inflection point
[6] = read-out: HiBiT-Degradation A375.10 BRAF 6 hours DC50, A375.10 cells, BRAF V600E, 6 hours
[7] = read-out: HiBiT-Degradation A375.10 BRAF 6 hours IP, A375.10 cells, BRAF V600E, 6 hours, inflection point
[8] = read-out: HiBiT-Degradation A375.10 BRAF 24 hours DC50, A375.10 cells, HiBiT, BRAF V600E, 24 hours
[9] = read-out: HiBiT-Degradation A375.10 BRAF 24 hours IP, A375.10 cells, HiBiT, BRAF V600E, 24 hours
[10] = A375.10 cells, BRAF V600E, 2 hours, inflection point, read-out: HiBiT-Degradation A375.10 BRAF 2 hours IP
[11] = A375.10 cells, BRAF V600E, 2 hours, read-out: HiBiT-Degradation A375.10 BRAF 2 hours DC50
[12] = A375.10 cells, BRAF V600E, 6 hours, inflection point, read-out: HiBiT-Degradation A375.10 BRAF 6 hours IP
[13] = A375.10 cells, BRAF V600E, 6 hours, read-out: HiBiT-Degradation A375.10 BRAF 6 hours DC50
[14] = A375.10 cells, HiBiT, BRAF V600E, 24 hours, read-out: HiBiT-Degradation A375.10 BRAF 24 hours DC50
[15] = A375.10 cells, HiBiT, BRAF V600E, 24 hours, read-out: HiBiT-Degradation A375.10 BRAF 24 hours IP
[16] = read-out: HiBiT-Degradation A375.10 BRAF 2 hours Emax, A375.10 cells, BRAF V600E, 2 hours, residual protein remaining

T1 sequence (P15056 whole entry V600E): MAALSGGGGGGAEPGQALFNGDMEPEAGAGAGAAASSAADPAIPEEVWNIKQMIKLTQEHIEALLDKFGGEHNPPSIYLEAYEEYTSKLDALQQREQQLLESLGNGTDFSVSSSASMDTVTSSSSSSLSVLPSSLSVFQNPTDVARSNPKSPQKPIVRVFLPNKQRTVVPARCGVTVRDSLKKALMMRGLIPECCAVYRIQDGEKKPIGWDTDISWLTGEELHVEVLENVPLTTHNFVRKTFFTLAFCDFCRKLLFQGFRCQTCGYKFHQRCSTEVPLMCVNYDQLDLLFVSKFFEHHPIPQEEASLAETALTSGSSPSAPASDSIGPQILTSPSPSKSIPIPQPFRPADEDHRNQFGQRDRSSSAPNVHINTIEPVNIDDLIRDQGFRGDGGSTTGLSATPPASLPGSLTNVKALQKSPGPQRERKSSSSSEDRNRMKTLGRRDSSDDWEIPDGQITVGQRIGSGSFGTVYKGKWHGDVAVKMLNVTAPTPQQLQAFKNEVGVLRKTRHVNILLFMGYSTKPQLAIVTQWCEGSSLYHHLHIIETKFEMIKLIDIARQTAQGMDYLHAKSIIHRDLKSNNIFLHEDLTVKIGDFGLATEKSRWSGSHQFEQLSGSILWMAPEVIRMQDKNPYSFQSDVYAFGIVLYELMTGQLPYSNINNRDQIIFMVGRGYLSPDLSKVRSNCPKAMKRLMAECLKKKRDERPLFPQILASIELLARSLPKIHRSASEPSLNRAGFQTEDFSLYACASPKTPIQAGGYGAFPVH
T1 sequence (Q96SW2 whole entry): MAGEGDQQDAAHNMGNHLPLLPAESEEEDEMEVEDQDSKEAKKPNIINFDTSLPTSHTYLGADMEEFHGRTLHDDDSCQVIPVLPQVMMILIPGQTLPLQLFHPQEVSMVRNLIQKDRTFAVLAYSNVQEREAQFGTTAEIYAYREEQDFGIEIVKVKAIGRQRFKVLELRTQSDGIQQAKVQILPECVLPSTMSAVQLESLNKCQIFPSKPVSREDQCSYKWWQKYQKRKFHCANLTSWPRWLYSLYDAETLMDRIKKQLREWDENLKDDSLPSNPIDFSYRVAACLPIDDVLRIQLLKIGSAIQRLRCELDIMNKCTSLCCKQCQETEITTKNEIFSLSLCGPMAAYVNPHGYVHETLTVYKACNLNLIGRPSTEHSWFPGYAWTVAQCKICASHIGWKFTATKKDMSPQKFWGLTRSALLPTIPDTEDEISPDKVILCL
T1 sequence (Q16531 whole entry partner): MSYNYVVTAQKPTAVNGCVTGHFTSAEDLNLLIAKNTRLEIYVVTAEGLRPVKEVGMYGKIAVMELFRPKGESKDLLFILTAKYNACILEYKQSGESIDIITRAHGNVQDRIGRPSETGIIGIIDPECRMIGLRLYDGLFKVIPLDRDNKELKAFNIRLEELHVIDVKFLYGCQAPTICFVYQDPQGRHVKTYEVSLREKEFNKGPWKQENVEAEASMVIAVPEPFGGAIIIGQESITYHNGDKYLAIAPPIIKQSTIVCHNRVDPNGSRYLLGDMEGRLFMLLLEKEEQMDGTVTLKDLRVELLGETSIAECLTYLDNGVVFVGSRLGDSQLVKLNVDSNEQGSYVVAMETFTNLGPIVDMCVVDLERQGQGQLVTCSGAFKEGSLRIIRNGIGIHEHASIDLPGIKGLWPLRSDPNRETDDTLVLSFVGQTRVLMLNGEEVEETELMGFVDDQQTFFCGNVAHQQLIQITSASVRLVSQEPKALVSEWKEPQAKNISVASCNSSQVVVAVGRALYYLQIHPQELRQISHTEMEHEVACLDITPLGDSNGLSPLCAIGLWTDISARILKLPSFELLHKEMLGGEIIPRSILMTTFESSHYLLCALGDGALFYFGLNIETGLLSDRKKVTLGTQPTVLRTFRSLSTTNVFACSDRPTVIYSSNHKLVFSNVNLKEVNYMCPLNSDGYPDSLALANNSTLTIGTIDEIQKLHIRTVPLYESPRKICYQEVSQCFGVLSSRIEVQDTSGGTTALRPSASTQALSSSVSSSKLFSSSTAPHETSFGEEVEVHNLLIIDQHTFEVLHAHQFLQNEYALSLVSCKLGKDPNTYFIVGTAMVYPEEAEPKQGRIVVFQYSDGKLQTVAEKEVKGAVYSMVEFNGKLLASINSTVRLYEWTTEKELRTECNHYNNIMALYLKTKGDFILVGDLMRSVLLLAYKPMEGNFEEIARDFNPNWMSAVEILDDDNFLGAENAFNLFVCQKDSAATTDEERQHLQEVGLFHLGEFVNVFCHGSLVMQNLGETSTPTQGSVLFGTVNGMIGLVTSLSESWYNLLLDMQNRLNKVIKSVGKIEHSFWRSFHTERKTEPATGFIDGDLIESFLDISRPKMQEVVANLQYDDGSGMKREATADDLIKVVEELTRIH

Row | Emax [1] | Emax [2] | Emax [3] | DC50 [4] | DC50 [5] | DC50 [6] | DC50 [7] | DC50 [8] | DC50 [9] | DC50 [10] | DC50 [11] | DC50 [12] | DC50 [13] | DC50 [14] | DC50 [15] | Emax [16] | SMILES
1 | 50 to 90% | < 50% | < 50% | 1000 to 10000 nM | < 1000 nM | < 1000 nM | < 1000 nM | < 1000 nM | < 1000 nM | – | – | – | – | – | – | – | CCN(C)S(=O)(=O)Nc1ccc(F)c(Oc2ccc3ncn([C@H]4COC5(CCC(N6CCN(c7ccc(NC8CCC(=O)NC8=O)cc7F)CC6)CC5)C4)c(=O)c3c2)c1C#N (stereo partly drawn) [Compound 40, 6-[2-cyano-3-[[ethyl(methyl)sulfamoyl]amino]-6-fluoro-phenoxy]-3-[(3R)-8-[4-[4-[(2,6-dioxo-3-piperidyl)amino]-2-fluoro-phenyl]piperazin-1-yl]-1-oxaspiro[4.5]decan-3-yl]-4-oxo-quinazoline]
2 | 50 to 90% | < 50% | < 50% | – | – | – | – | – | – | < 1000 nM | < 1000 nM | < 1000 nM | < 1000 nM | < 1000 nM | < 1000 nM | – | CC(C)S(=O)(=O)Nc1ccc(F)c(Oc2ccc3ncn([C@H]4COC5(CCN(C6CC7(C6)CN(c6cc8c(cc6F)c(N6CCC(=O)NC6=O)nn8C)C7)CC5)C4)c(=O)c3c2)c1C#N [Compound 134, N-[2-cyano-3-[3-[(3R)-8-[2-[3-(2,4-dioxohexahydropyrimidin-1-yl)-5-fluoro-1-methyl-indazol-6-yl]-2-azaspiro[3.3]heptan-6-yl]-1-oxa-8-azaspiro[4.5]decan-3-yl]-4-oxo-quinazolin-6-yl]oxy-4-fluoro-phenyl]propane-2-sulfonamide]
3 | – | < 50% | < 50% | – | – | – | – | – | – | < 1000 nM | < 1000 nM | < 1000 nM | < 1000 nM | < 1000 nM | < 1000 nM | 50 to 90% | CO[C@H]1CCN(S(=O)(=O)Nc2ccc(F)c(Oc3ccc4ncn([C@H]5COC6(CCN(C7CC8(C7)CN(c7cc9c(cc7F)c(N7CCC(=O)NC7=O)nn9C)C8)CC6)C5)c(=O)c4c3)c2C#N)C1 [Compound 157, (3S)-N-[2-cyano-3-[3-[(3R)-8-[2-[3-(2,4-dioxohexahydropyrimidin-1-yl)-5-fluoro-1-methyl-indazol-6-yl]-2-azaspiro[3.3]heptan-6-yl]-1-oxa-8-azaspiro[4.5]decan-3-yl]-4-oxo-quinazolin-6-yl]oxy-4-fluoro-phenyl]-3-methoxy-pyrrolidine-1-sulfonamide]
4 | – | < 50% | < 50% | – | – | – | – | – | – | < 1000 nM | < 1000 nM | < 1000 nM | < 1000 nM | < 1000 nM | < 1000 nM | < 50% | CCN(C)S(=O)(=O)Nc1ccc(F)c(Oc2ccc3ncc(C4CC5(CCN(C6CC7(C6)CN(c6cc8c(cc6F)c(N6CCC(=O)NC6=O)nn8C)C7)CC5)C4)nc3c2)c1C#N (stereo not drawn) [Compound 177, 7-[2-cyano-3-[[ethyl(methyl)sulfamoyl]amino]-6-fluoro-phenoxy]-2-[7-[2-[3-(2,4-dioxohexahydropyrimidin-1-yl)-5-fluoro-1-methyl-indazol-6-yl]-2-azaspiro[3.3]heptan-6-yl]-7-azaspiro[3.5]nonan-2-yl]quinoxaline]
5 | – | – | < 50% | – | – | – | – | – | – | < 1000 nM | < 1000 nM | – | – | < 1000 nM | < 1000 nM | < 50% | CCN(C)S(=O)(=O)Nc1ccc(F)c(Oc2ccc3ncn(C4CC5(CCN(C6CC7(CCN(c8cc9c(cc8F)c(N8CCC(=O)NC8=O)nn9C)CC7)C6)CC5)C4)c(=O)c3c2)c1C#N (stereo not drawn) [Compound 198, 6-[2-cyano-3-[[ethyl(methyl)sulfamoyl]amino]-6-fluoro-phenoxy]-3-[7-[7-[3-(2,4-dioxohexahydropyrimidin-1-yl)-5-fluoro-1-methyl-indazol-6-yl]-7-azaspiro[3.5]nonan-2-yl]-7-azaspiro[3.5]nonan-2-yl]-4-oxo-quinazoline]

Further lines, the compound ahead of its results:

Row | SMILES | Emax [1] | Emax [2] | Emax [3] | DC50 [4] | DC50 [5] | DC50 [6] | DC50 [7] | DC50 [8] | DC50 [9] | DC50 [10] | DC50 [11] | DC50 [12] | DC50 [13] | DC50 [14] | DC50 [15] | Emax [16]
6 | Cn1nc(N2CCC(=O)NC2=O)c2cc(F)c(N3CC4(CC(N5CCC6(CC5)C[C@@H](n5cnc7ccc(Oc8c(F)ccc(NS(=O)(=O)N9CC[C@@H](F)C9)c8C#N)cc7c5=O)CO6)C4)C3)cc21 [Compound 133, (3R)-N-[2-cyano-3-[3-[(3R)-8-[2-[3-(2,4-dioxohexahydropyrimidin-1-yl)-5-fluoro-1-methyl-indazol-6-yl]-2-azaspiro[3.3]heptan-6-yl]-1-oxa-8-azaspiro[4.5]decan-3-yl]-4-oxo-quinazolin-6-yl]oxy-4-fluoro-phenyl]-3-fluoro-pyrrolidine-1-sulfonamide] | – | < 50% | < 50% | – | – | – | – | – | – | < 1000 nM | > 10000 nM | < 1000 nM | < 1000 nM | < 1000 nM | < 1000 nM | 50 to 90%
7 | CCN(C)S(=O)(=O)Nc1ccc(F)c(Oc2ccc3ncn(C4CC5(CCN(C6CC7(C6)CN(c6cc8c(cc6F)c(N6CCC(=O)NC6=O)nn8C)C7)CC5)C4)c(=O)c3c2)c1C#N (stereo not drawn) [Compound 141, 6-[2-cyano-3-[[ethyl(methyl)sulfamoyl]amino]-6-fluoro-phenoxy]-3-[7-[2-[3-(2,4-dioxohexahydropyrimidin-1-yl)-5-fluoro-1-methyl-indazol-6-yl]-2-azaspiro[3.3]heptan-6-yl]-7-azaspiro[3.5]nonan-2-yl]-4-oxo-quinazoline] | – | < 50% | < 50% | – | – | – | – | – | – | < 1000 nM | < 1000 nM | < 1000 nM | < 1000 nM | < 1000 nM | < 1000 nM | < 50%
8 | CO[C@@H]1CCN(S(=O)(=O)Nc2ccc(F)c(Oc3ccc4ncn([C@H]5COC6(CCN(C7CC8(C7)CN(c7cc9c(cc7F)c(N7CCC(=O)NC7=O)nn9C)C8)CC6)C5)c(=O)c4c3)c2C#N)C1 [Compound 144, (3R)-N-[2-cyano-3-[3-[(3R)-8-[2-[3-(2,4-dioxohexahydropyrimidin-1-yl)-5-fluoro-1-methyl-indazol-6-yl]-2-azaspiro[3.3]heptan-6-yl]-1-oxa-8-azaspiro[4.5]decan-3-yl]-4-oxo-quinazolin-6-yl]oxy-4-fluoro-phenyl]-3-methoxy-pyrrolidine-1-sulfonamide] | – | < 50% | < 50% | 1000 to 10000 nM | < 1000 nM | < 1000 nM | < 1000 nM | < 1000 nM | < 1000 nM | – | – | – | – | – | – | 50 to 90%
9 | CN(CCO)S(=O)(=O)Nc1ccc(F)c(Oc2ccc3ncn(C4CC5(CCN(C6CC7(C6)CN(c6cc8c(cc6F)c(N6CCC(=O)NC6=O)nn8C)C7)CC5)C4)c(=O)c3c2)c1C#N (stereo not drawn) [Compound 151, 6-[2-cyano-6-fluoro-3-[[2-hydroxyethyl(methyl)sulfamoyl]amino]phenoxy]-3-[7-[2-[3-(2,4-dioxohexahydropyrimidin-1-yl)-5-fluoro-1-methyl-indazol-6-yl]-2-azaspiro[3.3]heptan-6-yl]-7-azaspiro[3.5]nonan-2-yl]-4-oxo-quinazoline] | 50 to 90% | < 50% | < 50% | 1000 to 10000 nM | < 1000 nM | < 1000 nM | < 1000 nM | < 1000 nM | < 1000 nM | – | – | – | – | – | – | –
10 | CCN(C)S(=O)(=O)Nc1ccc(F)c(Oc2ccc3ncn(C4CC5(CCN(C6CCN(c7cc8c(cc7F)c(N7CCC(=O)NC7=O)nn8C)CC6)CC5)C4)c(=O)c3c2)c1C#N [Compound 156, 6-[2-cyano-3-[[ethyl(methyl)sulfamoyl]amino]-6-fluoro-phenoxy]-3-[7-[1-[3-(2,4-dioxohexahydropyrimidin-1-yl)-5-fluoro-1-methyl-indazol-6-yl]-4-piperidyl]-7-azaspiro[3.5]nonan-2-yl]-4-oxo-quinazoline] | – | < 50% | < 50% | – | – | – | – | – | – | < 1000 nM | < 1000 nM | < 1000 nM | < 1000 nM | < 1000 nM | < 1000 nM | < 50%
11 | CCN(C)S(=O)(=O)Nc1ccc(F)c(Oc2ccc3ncc([C@H]4COC5(CCN(C6CC7(C6)CN(c6cc8c(cc6F)c(N6CCC(=O)NC6=O)nn8C)C7)CC5)C4)nc3c2)c1C#N [Compound 158, (3S)-3-[7-[2-cyano-3-[[ethyl(methyl)sulfamoyl]amino]-6-fluoro-phenoxy]quinoxalin-2-yl]-8-[2-[3-(2,4-dioxohexahydropyrimidin-1-yl)-5-fluoro-1-methyl-indazol-6-yl]-2-azaspiro[3.3]heptan-6-yl]-1-oxa-8-azaspiro[4.5]decane] | – | – | – | – | – | – | – | – | – | < 1000 nM | 1000 to 10000 nM | – | – | – | – | 50 to 90%
